Where two headings read alike, the source gives them in different places.
How the values were obtained:
[1] = system: preformed biofilm of P. aeruginosa PA14; experiment: microbe, parasite or virus in culture; conditions: for % Inhibition (30 min) / Biovolume (30 min): 30 min exposure; for Biovolume (30 min): non-treated 22.19
Method: (§1) Briefly, from an 18 h pre-culture, a bacterial suspension at OD600=0.08 prepared in sterile physiological saline solution was injected into each channel of the flow chamber. The bacteria were left for 2 h at 37° C. under static conditions (no flow) so that they adhered to the glass slide. Study of biofilm formation was then conducted under a flow of LB medium (2.5 ml/h) for 24 h at 37° C.
[…] Treatment of the preformed biofilm was conducted for 2 h at 37° C. under static conditions.
(§2) Treatment of the preformed biofilm was conducted for 2 h at 37° C. under static conditions.
To test the membrane integrity of the bacteria, a mixture of 5 μM SYTO 9 Green and 0.3 μM propidium iodide (PI) was used (Live/Dead BacLight Bacterial Viability Kit, Invitrogen).
as §2, §2, §2, §2
Treatment of the biofilm was conducted for 2 h at 37° C. under static conditions. […] Next, 300 μl of tobramycin (50 μg/ml) or 300 μl of milliQ sterile water (control conditions) were injected into the two channels of the flow chamber pre-exposed to ANP. The second treatment of the preformed biofilm was again conducted for 2 h at 37° C. under static conditions.

P. aeruginosa biofilm = conditions: Desriac et al. 2017, 2018; Rosay et al. 2015; cited from earlier work
P. aeruginosa = conditions: observed previously; by activating bacterial quorum-sensing systems; cited from earlier work
P. aeruginosa P14 = experiment: Growth of P. aeruginosa in liquid medium in the presence of ANP; assay type: cell-based, Pseudomonas aeruginosa; conditions: ANP at 1 μM and 0.1 μM
Method: The bacterial strains were cultured at 37° C. in Luria Bertani medium (LB) under agitation.
To determine a potential direct effect of ANP on the growth of P. aeruginosa, the inventors studied the impact of ANP at 1 μM and 0.1 μM on the growth of P. aeruginosa P14 in a liquid medium.

[2] = target: AmiC sensor of P. aeruginosa (Pseudomonas aeruginosa, UniProt P27017); conditions: Rosay et al. (2015); cited from earlier work
Chain of AmiC sensor of P. aeruginosa (P27017 whole entry): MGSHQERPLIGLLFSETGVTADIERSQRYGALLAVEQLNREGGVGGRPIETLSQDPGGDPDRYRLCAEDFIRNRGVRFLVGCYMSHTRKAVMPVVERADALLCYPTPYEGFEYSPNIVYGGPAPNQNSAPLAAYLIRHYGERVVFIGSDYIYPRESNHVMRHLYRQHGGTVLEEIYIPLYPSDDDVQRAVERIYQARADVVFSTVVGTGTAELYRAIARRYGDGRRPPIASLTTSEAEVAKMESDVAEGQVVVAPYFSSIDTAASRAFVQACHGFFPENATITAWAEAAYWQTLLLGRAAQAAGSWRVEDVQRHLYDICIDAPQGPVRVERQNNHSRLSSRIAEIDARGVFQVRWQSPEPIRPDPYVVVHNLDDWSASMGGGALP

[3] = system: A549 human pulmonary epithelial cells infected with P. aeruginosa PA14; experiment: LDH release by A549 cells infected with P. aeruginosa PA14 pre-treated with ANP (bacterial cytotoxicity); assay type: cell-based; conditions: for % LDH (dead cells): 6 h, MOI 10, PA14 non-treated 56.4 ± 5.5
Method: The line of human pulmonary epithelial cells of type II A549 (ATCC-CCL185TM, ATCC Manassas, Va.) was placed in culture at 37° C. under 5% CO2 atmosphere in DMEM medium (Lonza) supplemented with 10% foetal calf serum (Lonza) and 1% penicillin and streptomycin (Penistrep, Lonza). Under routine cell culture, the cells were seeded in a 25 ml flask and used at 80% confluence.
For cytotoxicity tests, the cells were seeded in 24-well plates to a final density of 3×10^5 cells per well and cultured 48 h before use. For a minimum time of 24 h before the infection tests, the cells were deprived of antibiotics and foetal calf serum through the addition of a medium without fresh serum.
The amount of LDH released by the eukaryote cells in the presence of bacteria, whether or not exposed to ANP (concentration of 1 μM at 10 nM), was determined using the Cytotox 96 enzymatic test (Promega, Charbonnières, France). The A549 cells were incubated for 6 h on a control (without treatment) or with P. aeruginosa PA14 (pre-treated with ANP) with a multiplicity of infection of 10. A lysis buffer consisting of Triton X-100 solution (9% in water), was employed to determine the maximum LDH potentially released by the A549 cells under the experimental conditions (100% LDH release). A level of background noise was determined using the culture medium alone and defined as 0% LDH release, to exclude contribution by the culture medium. Percentage LDH release in the cell population was then calculated with the equation: […]

[4] = system: P. aeruginosa biofilm in formation; experiment: Formation of the P. aeruginosa biofilm under dynamic conditions; assay type: cell-based, Pseudomonas aeruginosa; conditions: ANP 0.1 μM
Method: After 3 h pre-culture in LB medium at 37° C., P. aeruginosa was inoculated at OD600=0.08 in LB medium and sub-cultured for 2 h.
The ANP (Calbiochem Merck) was added 2 h after the start of culture, a time corresponding to the middle of the exponential growth phase of the bacteria. Final bacterial density and absence of contamination were controlled by seeding.
as §1, with “The biofilms were formed under dynamic conditions at 37° C. in a 3-channel flow chamber as described in Bazire et al. (2010) J. Bacteriol. 192:3001-3010. Briefly,” for “Briefly,”

[5] = Pseudomonas aeruginosa, PA14, 2 h

With colistin [reference compound] the “% Inhibition” value ([1]; Colistin 1 μg/ml alone, 2 h) was 88.6% and the Biovolume ([1]; Colistin 1 μg/ml alone, 2 h, non-treated 18.5) was 2.1 μm^3/μm^2.

In the case of C-type Natriuretic Peptide [CNP], the “formation of P. aeruginosa biofilm” value (P. aeruginosa biofilm) is given as “prevent the formation” and the “bacterial virulence and cytotoxicity” value (P. aeruginosa) is given as “slightly increased”.

In the case of `CC[C@H](C)[C@@H]1NC(=O)[C@H](CCCNC(=N)N)NC(=O)[C@H](CC(=O)O)NC(=O)[C@H](CCSC)NC(=O)[C@H](CCCNC(=N)N)NC(=O)CNC(=O)CNC(=O)[C@H](Cc2ccccc2)NC(=O)[C@@H](NC(=O)[C@H](CO)NC(=O)[C@H](CO)NC(=O)[C@H](CCCNC(=N)N)NC(=O)[C@H](CCCNC(=N)N)NC(=O)[C@H](CC(C)C)NC(=O)[C@@H](N)CO)CSSC[C@@H](C(=O)N[C@@H](CC(N)=O)C(=O)N[C@@H](CO)C(=O)N[C@@H](Cc2ccccc2)C(=O)N[C@@H](CCCNC(=N)N)C(=O)N[C@@H](Cc2ccc(O)cc2)C(=O)O)NC(=O)CNC(=O)[C@H](CC(C)C)NC(=O)CNC(=O)[C@H](CO)NC(=O)[C@H](CCC(N)=O)NC(=O)[C@H](C)NC(=O)CNC1=O` [ANP, Atrial Natriuretic Peptide], the “effect on growth of P. aeruginosa” value (P. aeruginosa P14) is reported as “None of the tested ANP concentrations affected bacterial growth”, the “% Inhibition (30 min)” value ([1]; ANP 0.3 ng/ml) is reported as 57.5 (*) % and the “Biovolume (30 min)” value ([1]; ANP 0.3 ng/ml) is reported as 9.5 μm^3/μm^2. For the same compound, the “% Inhibition (2 h)” value ([1]; ANP 0.3 ng/ml, 2 h exposure) was 45.1 (**) %, the “Biovolume (2 h)” value ([1]; ANP 0.3 ng/ml, 2 h exposure, non-treated 21.1 (mean of all controls)) was 10.6 μm^3/μm^2 and the “% Inhibition (30 min)” value ([1]; ANP 3 ng/ml) was 59.1 (*) %. For the same compound, the “Biovolume (30 min)” value ([1]; ANP 3 ng/ml) was 8.8 μm^3/μm^2, the “% Inhibition (2 h)” value ([1]; ANP 3 ng/ml, 2 h exposure) was 65.9 (***) % and the “Biovolume (2 h)” value ([1]; ANP 3 ng/ml, 2 h exposure, non-treated 21.1 (mean of all controls)) was 6.3 μm^3/μm^2. The “% Inhibition (30 min)” value ([1]; ANP 30 ng/ml) was 69.0 (*) %, the “Biovolume (30 min)” value ([1]; ANP 30 ng/ml) was 6.7 μm^3/μm^2 and the “% Inhibition (2 h)” value ([1]; ANP 30 ng/ml, 2 h exposure) was 72.5 (***) %. The “Biovolume (2 h)” value ([1]; ANP 30 ng/ml, 2 h exposure, non-treated 21.1 (mean of all controls)) was 4.4 μm^3/μm^2, the biofilm structure dispersed ([1]; ANP 0.1 μM for 2 h, even 30 minutes) was “about 80%” and the “thickness of the biofilm” value ([1]; ANP 0.1 μM, 2 h exposure) was “major reduction”. The “bacterial biomass reduced compared with control” value ([1]; ANP 0.1 μM, 2 hours exposure (P<0.001)) was 81.4±4.1%, the “% Inhibition (30 min)” value ([1]; ANP 300 ng/ml (0.1 μM)) was 80.2 (*) % and the “Biovolume (30 min)” value ([1]; ANP 300 ng/ml (0.1 μM)) was 4.4 μm^3/μm^2. The “% Inhibition (2 h)” value ([1]; ANP 300 ng/ml (0.1 μM), 2 h exposure) was 81.4 (***) %, the “Biovolume (2 h)” value ([1]; ANP 300 ng/ml (0.1 μM), 2 h exposure, non-treated 21.1 (mean of all controls)) was 4.9 μm^3/μm^2 and the “% Inhibition” value ([1]; ANP 10^−8 M alone, 2 h (colistin experiment)) was 73.5%. For the same compound, the “% Inhibition” value ([1]; ANP 10^−8 M alone, 2 h (imipenem experiment)) was 75.4%, the “% Inhibition” value ([1]; ANP 10^−8 M alone, 2 h (polymyxin B experiment)) was 75.3% and the Biovolume ([1]; ANP 10^−8 M alone, 2 h, non-treated 18.2 (polymyxin B experiment)) was 4.5 μm^3/μm^2. The Biovolume ([1]; ANP 10^−8 M alone, 2 h, non-treated 18.5 (colistin experiment)) was 4.9 μm^3/μm^2, the Biovolume ([1]; ANP 10^−8 M alone, 2 h, non-treated 28.0 (imipenem experiment)) was 6.9 μm^3/μm^2 and the “% Inhibition” value ([1]; ANP 10^−9 M 2 h, then sterile water 2 h (sequential experiment)) was 68.7%. The Biovolume ([1]; ANP 10^−9 M 2 h, then sterile water 2 h (sequential experiment), non-treated 13.1) was 4.1 μm^3/μm^2, the “% Inhibition” value ([1]; ANP 10^−9 M alone, 2 h (table with tobramycin 10 μg/ml)) was 66.4% and the “% Inhibition” value ([1]; ANP 10^−9 M alone, 2 h (table with tobramycin 50 μg/ml)) was 66.4%. For the same compound, the Biovolume ([1]; ANP 10^−9 M alone, 2 h, non-treated 13.5 (table with tobramycin 10 μg/ml)) was 4.53 μm^3/μm^2, the Biovolume ([1]; ANP 10^−9 M alone, 2 h, non-treated 13.5 (table with tobramycin 50 μg/ml)) was 4.53 μm^3/μm^2 and the “remaining bacterial biomass reduced compared with control” value ([1]; ANP (0.1 μM per Example 1), 30 minutes exposure (P<0.05)) was 80.2±2.0%. For the same compound, the “pre-established P. aeruginosa biofilms destroyed” value ([1]; low dose (on and after 0.1 nM), as soon as 30 min after administration) was “about 80%”, the “dispersion of established biofilm (observation)” value (from here on “dispersion”) ([1]; on and after the lowest concentration of 0.3 ng/ml, as soon as after exposure for 30 min) was “strongly dispersed” and the “formation of P. aeruginosa biofilm” value (P. aeruginosa biofilm) was “prevent the formation”. The “binding onto the AmiC sensor of P. aeruginosa” value [2] was “strong affinity”, the “impact on the cytotoxic activity of P. aeruginosa in pulmonary cells” value ([3]; ANP 1 μM to 10 nM) was “no impact” and the “% LDH (dead cells)” value ([3]; PA14 + ANP 10^−6 M) was 58.9 ± 5.8%. For the same compound, the “% LDH (dead cells)” value ([3]; PA14 + ANP 10^−7 M) was 53.5 ± 5.3%, the “% LDH (dead cells)” value ([3]; PA14 + ANP 10^−8 M) was 54.5 ± 5.5% and the “formation of a P. aeruginosa biofilm” value [4] was “fully prevents”.

With lebetin 1β [Lebetin L1 beta] the “dispersion” value ([1]; 10^−8 M, 2 h exposure) was “strongly dispersed”, the “% Inhibition (2 h)” value ([1]; Lebetin L1 beta 10^−8 M, 2 h exposure) was 67.0% and the “Biovolume (2 h)” value ([1]; Lebetin L1 beta 10^−8 M, 2 h exposure, non-treated 21.0) was 6.9 μm^3/μm^2.

For Brain Natriuretic Peptide [BNP], the “formation of P. aeruginosa biofilm” value (P. aeruginosa biofilm) is given as “prevent the formation”.

For osteocrin, the “dispersion” value ([1]; 10^−8 M, 2 h exposure) was “strongly and significantly dispersed”, the “% Inhibition (2 h)” value ([1]; Osteocrin 10^−8 M, 2 h exposure) was 59.4 (***) % and the “Biovolume (2 h)” value ([1]; Osteocrin 10^−8 M, 2 h exposure, non-treated 29.8) was 12.1 μm^3/μm^2. For the same compound, the “binding onto the AmiC sensor of P. aeruginosa” value [2] was “strong affinity”.

Compound `C[C@@H](O)[C@H]1C(=O)N2C(C(=O)O)=C(SCCN=CN)C[C@H]12` [Imipenem, imipenem, reference compound] has a Biovolume [1] of 7.0 μm^3/μm^2 and an inhibition at 0.5 µg/mL [1, 5] of 75%.

In the case of `NC[C@H]1O[C@H](O[C@H]2[C@H](O)[C@@H](O[C@H]3O[C@H](CO)[C@@H](O)[C@H](N)[C@H]3O)[C@H](N)C[C@@H]2N)[C@H](N)C[C@@H]1O` [Tobramycin, tobramycin, reference compound], the inhibition at 10 µg/mL [1, 5] is reported as 78.5%, the inhibition at 50 µg/mL [1, 5] is reported as 75.9% and the Biovolume ([1]; Tobramycin 10 μg/ml alone, 2 h, non-treated 13.5) is reported as 2.9 μm^3/μm^2. For the same compound, the Biovolume ([1]; Tobramycin 50 μg/ml alone, 2 h, non-treated 13.5) was 3.26 μm^3/μm^2.

With polymyxin B [reference compound] the “% Inhibition” value ([1]; Polymyxin B 4 μg/ml alone, 2 h) was 59.3% and the Biovolume ([1]; Polymyxin B 4 μg/ml alone, 2 h, non-treated 18.2) was 7.4 μm^3/μm^2.

In the case of `O=C(O)c1cn(C2CC2)c2cc(N3CCNCC3)c(F)cc2c1=O` [Ciprofloxacin, ciprofloxacin, reference compound], the inhibition at 0.01 µg/mL [1, 5] is reported as 90% and the inhibition at 0.04 µg/mL [1, 5] is reported as 99.3%.

In the case of “lebetin 2α (GDNKPPKKGPPNGCFGHKIDRIGSHSGLGCNKVDDNKG) [Lebetin L2 alpha]”, the “dispersion” value ([1]; 10^−8 M, 2 h exposure) is reported as “strongly and significantly dispersed”, the “% Inhibition (2 h)” value ([1]; Lebetin L2 alpha 10^−8 M, 2 h exposure) is reported as 70.2 (***) % and the “Biovolume (2 h)” value ([1]; Lebetin L2 alpha 10^−8 M, 2 h exposure, non-treated 29.7) is reported as 8.9 μm^3/μm^2. The “binding onto the AmiC sensor of P. aeruginosa” value [2] was “strong affinity”.
